Test results as given in patent US9771353B2, “Kinase inhibitors based upon N-alkyl pyrazoles” (RESPIVERT LIMITED, priority 2013, dated 2017).

Key:
p38 MAPKα = p38 MAPKα (Homo sapiens (Human), UniProt Q16539); assay: p38 MAPKα enzyme inhibition (FRET, Z-LYTE), Method 2; assay type: biochemical
c-Src = c-Src (Homo sapiens (Human), UniProt P12931); assay: c-Src enzyme inhibition (FRET, Z-LYTE); assay type: biochemical
Method: (§1) The enzyme inhibitory activities of compounds disclosed herein are determined by FRET using synthetic peptides labelled with both donor and acceptor fluorophores (Z-LYTE, Invitrogen Ltd., Paisley, UK).
(§2) The relevant enzyme (3000 ng/mL or 2000 ng/mL respectively, 2.5 μL) is incubated with the test compound (either 4 μg/mL, 0.4 μg/mL, 0.04 μg/mL, or 0.004 μg/mL, 2.5 μL each) for 2 hr at RT. The FRET peptides (8 μM, 2.5 μL), and appropriate ATP solutions (2.5 μL, 800 μM for c-Src, and 60 μM ATP for Syk) are then added to the enzymes/compound mixtures and incubated for 1 hr. Development reagent (protease, 5 μL) is added for 1 hr prior to detection in a fluorescence microplate reader (Varioskan® Flash, ThermoFisher Scientific).
(§3) In all cases, the site-specific protease cleaves non-phosphorylated peptide only and eliminates the FRET signal. Phosphorylation levels of each reaction are calculated using the ratio of coumarin emission (donor) over fluorescein emission (acceptor), for which high ratios indicate high phosphorylation and low ratios indicate low phosphorylation levels.

Syk = Syk (Homo sapiens (Human), UniProt P43405); assay: Syk enzyme inhibition (FRET, Z-LYTE); assay type: biochemical
Method: as §1
as §2, with “The inhibitory activities of compounds of the invention against c-Src and Syk enzymes (Invitrogen), are evaluated in a similar fashion to that described hereinabove. The relevant” for “The relevant”
as §3

GSK3α = GSK3α (Homo sapiens (Human), UniProt P49840); assay: GSK 3α enzyme inhibition (FRET, Z-LYTE), Method 2; assay type: biochemical
Method: as §1
The inhibitory activities of compounds of the invention against the GSK 3α enzyme isoform (Invitrogen), are evaluated by determining the level of activation/phosphorylation of the target peptide. The GSK3-α protein (500 ng/mL, 2.5 μL) is mixed with the test compound (2.5 μL at either 4 μg/mL, 0.4 μg/mL, 0.04 μg/mL, or 0.004 μg/mL) for 2 hr at RT. The FRET peptide (8 μM, 2.5 μL), which is a phosphorylation target for GSK3α, and ATP (40 μM, 2.5 μL) are then added to the enzyme/compound mixture and the resulting mixture incubated for 1 hr. Development reagent (protease, 5 μL) is added for 1 hr prior to detection in a fluorescence microplate reader (Varioskan® Flash, ThermoFisher Scientific).
as §3
This method follows the same steps as Method 1 above, but utilises a shorter period of mixing of the test compound (105 minutes instead of 2 hours) with the GSK3-α protein.

PBMCs [1] = assay: LPS-induced TNFα/IL-8 release in PBMC cells, assay (b); assay type: cell-based; conditions: Homo sapiens, LPS-stimulated PBMCs, read-out: IC50 Values for Inhibition of Cytokine Release, PBMCs IL-8
Method: Peripheral blood mononuclear cells (PBMCs) from healthy subjects are separated from whole blood using a density gradient (Lymphoprep, Axis-Shield Healthcare). The PBMCs are seeded in 96 well plates and treated with compounds at the desired concentration for 2 hours before addition of 1 ng/mL LPS (Escherichia Coli 0111:B4 from Sigma Aldrich) for 24 hours under normal tissue culture conditions (37° C., 5% CO2). The supernatant is harvested for determination of IL-8 and TNFα concentrations by sandwich ELISA (Duo-set, R&D systems) and read on the fluorescence microplate reader (Varioskan® Flash, ThermoFisher Scientific).

HT29 cells = assay: IL-1β-induced IL-8 release in HT29 cells, assay (d); assay type: cell-based; conditions: Homo sapiens, HT-29, IL-1β-stimulated HT29 cells, read-out: IC50 Values for Inhibition of Cytokine Release, HT29 cells IL-8
Method: HT29 cells, a human colon adenocarcinoma cell line, are plated in a 96 well plate (24 hrs) and pre-treated with compounds at the desired concentration for 2 hours before addition of 5 ng/mL of IL-1β (Abcam) for 24 hours. Supernatants are harvested for IL-8 quantification by Sandwich ELISA (Duo-set, R&D System). The IC50 is determined from the dose response curve.

PBMCs [2] = assay: IL-2 and IFN gamma release in CD3/CD28 stimulated PBMC cells, assay (c); assay type: cell-based; conditions: Homo sapiens
Method: PBMCs from healthy subjects are separated from whole blood using a density gradient (Lymphoprep, Axis-Shield Healthcare). Cells are added to a 96 well plate pre-coated with a mixture of CD3/CD28 monoclonal antibodies (0.3 μg/mL eBioscience and 3 μg/mL BD Pharmingen respectively). Compound at the desired concentration is then added to the wells and the plate left for 3 days under normal tissue culture conditions. Supernatants are harvested and IL-2 and IFN gamma release determined by Sandwich ELISA (Duo-set, R&D System). The IC50 is determined from the dose response curve.

d-U937 cells = assay: Accumulation of β catenin in d-U937 cells, assay (m); assay type: cell-based, human
Method: U937 cells, a human monocytic cell line, are differentiated into macrophage-type cells by incubation with PMA; (100 ng/mL) for between 48 to 72 hr. The cells are then incubated with either final concentrations of test compound or vehicle for 18 hr. The induction of β-catenin by the test compounds is stopped by replacing the media with 4% formaldehyde solution. Endogenous peroxide activity is neutralised by incubating with quenching buffer (100 μL, 0.1% sodium azide, 1% H2O2 in PBS with 0.05% Tween-20) for 20 min. The cells are washed with washing buffer (200 μL; PBS containing 0.05% Tween-20) and incubated with blocking solution (200 μL; 5% milk in PBS) for 1 hr, re-washed with washing buffer (200 μL) and then incubated overnight with anti-β-catenin antibody solution (50 μL) in 1% BSA/PBS (BD, Oxford, UK).
After washing with washing buffer (3×200 μL; PBS containing 0.05% Tween-20), cells are incubated with an HRP-conjugated secondary antibody solution (100 μL) in 1% BSA/PBS (Dako, Cambridge, UK) and the resultant signal is determined colourimetrically (OD: 450 nm with a reference wavelength of 655 nm) using TMB substrate (50 μL; R&D Systems, Abingdon, UK). This reaction is stopped by addition of 1N H2SO4 solution (50 μL). Cells are then washed with washing buffer and 2% crystal violet solution (50 μL) is applied for 30 min. After washing with washing buffer (3×200 μL), 1% SDS (100 μL) is added to each well and the plates are shaken lightly for 1 hr prior to measuring the absorbance at 595 nm (Varioskan® Flash, Thermo-Fisher Scientific).
The measured OD450-655 readings are corrected for cell number by dividing the OD450-655 by the OD595 readings. The percentage induction for each well is calculated relative to vehicle, and the ratio of induction normalised in comparison with the induction produced by a standard control comprising of N-(4-(4-(3-(3-tert-butyl-1-p-tolyl-1H-pyrazol-5-yl)ureido)naphthalen-1-yloxy)pyridin-2-yl)-2-methoxyacetamide (1 μg/mL) which is defined as 100%.

[3] = IFNγ, read-out: IC50 Values for Inhibition of Cytokine Release, PBMCs IFNγ
[4] = 1 μg/mL test compound, normalised to reference N-(4-(4-(3-(3-tert-butyl-1-p-tolyl-1H-pyrazol-5-yl)ureido)naphthalen-1-yloxy)pyridin-2-yl)-2-methoxyacetamide
[5] = 5 μg/mL test compound, normalised to the same reference compound
[6] = 10 μg/mL test compound, normalised to the same reference compound

GSK3α, sequence (P49840 whole entry): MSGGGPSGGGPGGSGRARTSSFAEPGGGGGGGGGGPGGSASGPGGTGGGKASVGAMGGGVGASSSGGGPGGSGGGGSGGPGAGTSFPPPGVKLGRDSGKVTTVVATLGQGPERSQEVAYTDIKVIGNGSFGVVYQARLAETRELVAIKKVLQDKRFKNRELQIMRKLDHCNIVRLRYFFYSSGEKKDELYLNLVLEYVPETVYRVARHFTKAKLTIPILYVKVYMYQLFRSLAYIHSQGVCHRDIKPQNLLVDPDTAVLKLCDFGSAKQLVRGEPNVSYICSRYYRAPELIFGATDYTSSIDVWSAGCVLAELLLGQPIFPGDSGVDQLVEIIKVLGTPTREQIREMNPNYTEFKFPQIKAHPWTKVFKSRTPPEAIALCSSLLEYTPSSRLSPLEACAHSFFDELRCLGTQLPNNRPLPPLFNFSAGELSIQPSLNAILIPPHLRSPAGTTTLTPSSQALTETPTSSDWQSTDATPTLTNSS
p38 MAPKα, sequence (Q16539 whole entry): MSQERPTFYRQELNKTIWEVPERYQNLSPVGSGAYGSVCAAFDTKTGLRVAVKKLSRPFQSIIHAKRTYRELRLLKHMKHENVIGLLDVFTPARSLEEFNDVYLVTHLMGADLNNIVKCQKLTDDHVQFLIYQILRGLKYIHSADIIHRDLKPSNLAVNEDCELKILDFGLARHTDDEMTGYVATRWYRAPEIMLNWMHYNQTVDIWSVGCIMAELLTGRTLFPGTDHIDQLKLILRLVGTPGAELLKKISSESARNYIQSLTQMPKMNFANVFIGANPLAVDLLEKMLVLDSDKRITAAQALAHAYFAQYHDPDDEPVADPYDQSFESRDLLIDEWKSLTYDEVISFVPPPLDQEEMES
c-Src, sequence (P12931 whole entry, looked up): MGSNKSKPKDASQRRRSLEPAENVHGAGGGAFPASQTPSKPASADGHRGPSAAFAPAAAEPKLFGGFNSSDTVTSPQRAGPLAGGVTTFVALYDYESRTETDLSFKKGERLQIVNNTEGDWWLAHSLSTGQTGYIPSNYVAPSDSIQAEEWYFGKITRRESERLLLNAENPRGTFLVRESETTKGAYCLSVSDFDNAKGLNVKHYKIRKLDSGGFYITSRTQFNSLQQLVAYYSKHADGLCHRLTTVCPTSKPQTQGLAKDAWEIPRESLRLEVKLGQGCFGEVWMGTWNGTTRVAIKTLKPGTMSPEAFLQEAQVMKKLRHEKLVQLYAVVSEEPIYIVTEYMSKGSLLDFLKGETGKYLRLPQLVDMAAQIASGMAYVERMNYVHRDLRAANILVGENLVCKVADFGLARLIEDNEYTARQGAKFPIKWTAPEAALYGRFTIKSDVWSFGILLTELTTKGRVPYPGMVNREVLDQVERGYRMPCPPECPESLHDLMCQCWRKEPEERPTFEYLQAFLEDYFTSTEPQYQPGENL

| IC50 (p38 MAPKα) [nM] | IC50 (c-Src) [nM] | IC50 (Syk) [nM] | IC50 (GSK3α) [nM] | IC50 (HT29 cells) [nM] | Structure (SMILES) | IC50 (PBMCs [1]) [nM] | IC50 (PBMCs [2]; [3]) [nM] | IC50 (PBMCs [2]; IL-2, read-out: IC50 Values for Inhibition of Cytokine Release, PBMCs IL-2) [nM] | % β-catenin induction (d-U937 cells; [4]) [%] | % β-catenin induction (d-U937 cells; [5]) [%] | % β-catenin induction (d-U937 cells; [6]) [%] |
| --- | --- | --- | --- | --- | --- | --- | --- | --- | --- | --- | --- |
| 13 | 9 | > 1000 | 9520 | > 1000 | C#Cc1cc(Nc2nccc(Oc3ccc(NC(=O)Nc4cc(C(C)C)nn4C)c4ccccc34)n2)cc(C(=O)NCCOCCOCCOC)c1 [Example 11, 3-Ethynyl-5-((4-((4-(3-(3-isopropyl-1-methyl-1H-pyrazol-5-yl)ureido)naphthalen-1-yl)oxy)pyrimidin-2-yl)amino)-N-(2-(2-(2-methoxyethoxy)ethoxy)ethyl)benzamide] | 26.1 |  |  |  |  |  |
| 9 | 8 | 819 | 14100 | 270 | C#Cc1cc(Nc2nccc(Oc3ccc(NC(=O)Nc4cc(C(C)C)nn4C)c4ccccc34)n2)cc(C(=O)NCCN2CCOCC2)c1 [Example 10, 3-Ethynyl-5-((4-((4-(3-(3-isopropyl-1-methyl-1H-pyrazol-5-yl)ureido)naphthalen-1-yl)oxy)pyrimidin-2-yl)amino)-N-(2-morpholinoethyl)benzamide] | 15.6 |  |  |  |  |  |
| 160 | 10 | > 1000 | 7490 |  | COCCOCCOCCOc1cc(Nc2cc(Oc3ccc(NC(=O)Nc4cc(C(C)(C)C)nn4C)c4ccccc34)ccn2)cc(OC)c1 [Example 5, 1-(3-(tert-Butyl)-1-methyl-1H-pyrazol-5-yl)-3-(4-((2-((3-methoxy-5-(2-(2-(2-methoxy-ethoxy)ethoxy)ethoxy)phenyl)amino)pyridin-4-yl)oxy)naphthalen-1-yl)] | 2.8 | 13.3 | 33.8 | −5.5 | −7 | −2 |
| 66 | 53 | > 1000 | 12400 | 18 | C#Cc1cc(Nc2cc(Oc3ccc(NC(=O)Nc4cc(C(C)(C)C)nn4C)c4ccccc34)ccn2)cc(C(=O)NCCOCCOCCOC)c1 [Example 9, 3-((4-((4-(3-(3-(tert-Butyl)-1-methyl-1H-pyrazol-5-yl)ureido)naphthalen-1-yl)oxy)pyridin-2-yl)amino)-5-ethynyl-N-(2-(2-(2-methoxyethoxy)ethoxy)ethyl)benzamide] | 3.8 | 33.7 |  | −2.5 | −1 | 4.5 |
